Patent US20130029983A1, “AMINOTHIENOPYRIDAZINE INHIBITORS OF TAU ASSEMBLY” (priority 2009, published 2013)

Experiments:
[1] = Brain and plasma drug levels 1 h after i.p. administration (LC-MS/MS); assay type: in vivo; settings: mice, 1 h after i.p. 5 mg/Kg
Experimental: Test compounds underwent preliminary evaluations of brain penetration, in which 5 mg/Kg of each compound was administered intraperitoneally (i.p.) to a group of three normal mice; drug levels in brain and plasma were determined at a single time-point (1 h) by LC-MS/MS using pre-validated calibration curves. […] However, both esters appeared to have relatively short half-lives in plasma, as indicated by the limited amount of parent drug detected after 1 h from administration of the compounds. […] CNDR-51362 was selected for full PK analysis in which brain and plasma drug levels were determined at six time points (i.e., 30 min, 1 h, 2 h, 4 h, 8 h, and 16 h). The results from this experiment, illustrated in FIG. 6A, confirmed that the total B/P exposure ratio over 16 h is 1.6. […] Finally, in order to investigate the potential for ATPZ congeners to be orally administered, we evaluated brain and plasma level of CNDR-51362 and CNDR-51349 after oral administration of 5 mg/Kg.
Brain tissue was homogenized in 10 mM ammonium acetate, pH 5.7 (1:2; w/v) using a handheld sonic homogenizer. Plasma was obtained from blood that was collected into a 1.5 mL tube containing 0.5M EDTA solution and subjected to centrifugation for 10 min. at 4500 g at 4° C. Aliquots (50 μL) of brain homogenate or plasma were mixed with 0.2 mL of acetonitrile, centrifuged at 15,000 g, and the resulting supernatants were used for subsequent LC-MS/MS analysis. The LC-MS/MS system was comprised of an Aquity HPLC and a TQ MS that was controlled using MassLynx software (Waters Corporation, Milford, Mass., USA). Compounds were detected using multiple reaction monitoring (MRM) of their specific collision-induced ion transitions. Samples (5 μL) were separated on an Aquity BEH C18 column (1.7 μm, 2.1×50 mm) at 35° C. Operation was in positive electrospray ionization mode, with mobile phase A of 0.1% (v/v) formic acid, and B of either acetonitrile or methanol with 0.1% (v/v) formic acid at a flow rate of 0.6 mL/min using a gradient from 5% to 95% B over two min., followed by wash and re-equilibration steps. The MS was operated with a desolvation temperature of 450° C. and a source temperature of 150° C. Desolvation and source nitrogen gas flows were 900 L/hr and 50 L/hr, respectively. Source and MS/MS voltages were optimized for each compound using the MassLynx auto tune utility. Standard curves were generated for each compound from brain homogenate and plasma samples that had compound added at 4, 40, 400 and 4000 ng/mL and extracted as above. Peak areas were plotted against concentration and a 1/x weighted linear regression curve was used to quantify the tissue-derived samples using the average peak area from triplicate injections.

[2] = molecular target: T1, full-length tau (tau40) (Homo sapiens, UniProt P10636); experiment: Tau40 fibrillization sedimentation assay; assay type: biochemical; settings: SDS-PAGE of soluble and insoluble fractions after centrifugation; for Emax: read-out: Tau40 Sed. Assay, maximal percent inhibition of tau40 fibrillization
T1 construct: Full length tau (Tau40; amino acids 1-441); made in house
T1 sequence (P10636 1-441 isoform P10636-8): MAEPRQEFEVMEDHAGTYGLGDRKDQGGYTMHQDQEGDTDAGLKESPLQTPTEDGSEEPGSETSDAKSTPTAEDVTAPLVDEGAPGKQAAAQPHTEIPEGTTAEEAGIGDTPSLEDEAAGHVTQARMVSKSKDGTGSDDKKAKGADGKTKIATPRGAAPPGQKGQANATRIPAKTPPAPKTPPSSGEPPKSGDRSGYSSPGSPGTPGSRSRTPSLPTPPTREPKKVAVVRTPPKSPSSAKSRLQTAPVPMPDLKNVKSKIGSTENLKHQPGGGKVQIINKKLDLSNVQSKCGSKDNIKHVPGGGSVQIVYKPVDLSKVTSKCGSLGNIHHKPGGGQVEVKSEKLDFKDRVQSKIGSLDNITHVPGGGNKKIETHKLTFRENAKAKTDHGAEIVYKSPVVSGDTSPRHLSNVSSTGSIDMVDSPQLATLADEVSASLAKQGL
Experimental: The determination of compound-induced effects on the amount of tau that remains soluble upon centrifugation, and EM visualization of tau species following incubation with test compounds, were as previously described (Crowe, A., Ballatore, C., Hyde, E., Trojanowski, J. Q., and Lee, V. M. Y. (2007) Biochemical and Biophysical Research Communications 358, 1-6). […]

[3] = molecular target: T2, K18PL tau (Homo sapiens, UniProt P10636, P618L); experiment: K18PL tau centrifugation (sedimentation) assay, SDS-PAGE densitometry; assay type: biochemical; settings: for Emax: SDS-PAGE of soluble and insoluble fractions after centrifugation, read-out: K18PL Sed. Assay, maximal percent inhibition of K18PL fibrillization
T2 construct: (K18PL; amino acids 244-369); made in house
T2 sequence (P10636 561-686 P618L): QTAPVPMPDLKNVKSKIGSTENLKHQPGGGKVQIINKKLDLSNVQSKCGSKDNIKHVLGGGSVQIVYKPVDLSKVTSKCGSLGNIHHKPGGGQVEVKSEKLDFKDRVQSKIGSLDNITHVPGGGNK
Method in brief: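 Heparin-induced fibrillization of K18PL tau in sodium acetate buffer with test compound; mixtures were centrifuged and soluble versus insoluble K18PL quantified by SDS-PAGE densitometry. A repeat run centrifuged DMSO- and compound-treated mixtures for 30 min at time zero to remove pelletable material before incubation.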

[4] = Turbidimetric solubility in fibrillization buffer; assay type: physicochemical; settings: 100 mM NaOAc pH 7.0 fibrillization buffer, 1% DMSO
Experimental: Compounds were serially diluted in DMSO to achieve a 2.5 fold dilution series from 20 mM down 8 points to […] on a 384-well master plate (Costar 3672). Aliquots (2 μL) were transferred to a clear 96-well assay plate (Fisher 12-565-501) containing 198 μL fibrillization buffer (100 mM NaOAc pH 7.0) for a 100-fold dilution (200 μM down to 0.3 μM). The plate was incubated with agitation for 2.5 h, and the absorbance at 550, 600, 650 and 700 nm was measured on a Spectramax M5 spectrophotometer. DMSO (1%) in fibrillization buffer served as a control that was subtracted from each data point. The absorbances were averaged and the concentration at which the average absorbance rose above 0.03 AU was an indication of insoluble compound, with solubility limits reported as the previous concentration in the dilution series.

B/P, ratio between brain/plasma drug level [1]	Tau40 Sed. Assay, maximal percent inhibition of tau40 fibrillization [2]	Emax [2]	Emax [3]	Water Solubility [4]	B/P, ratio between brain/plasma drug level ([1]; 5 mg/kg)	B/P, ratio between brain/plasma drug level ([1]; listed as CNDR-51346, 5 mg/kg)	Tau Cent. Assay % Soluble ([3]; Table 3, K18PL tau centrifugation assay)	Compound
1.6	58%	50 to 60%	69%	32 µM				Nc1scc2c(C(=O)NC3CC3)nn(-c3ccc(Cl)cc3)c(=O)c12 [CNDR-51362, 5-Amino-3-(4-chlorophenyl)-N-cyclopropyl-4-oxo-3,4-dihydrothieno[3,4-d]pyridazine-1-carboxamide]
	48%	50 to 60%	70%	13 µM	3.3	comparatively higher B/P ratio	62%	CCOC(=O)c1nn(-c2ccc(Cl)cc2)c(=O)c2c(N)scc12 [Compound 17, Ethyl 5-amino-3-(4-chlorophenyl)-4-oxo-3,4-dihydrothieno[3,4-d]pyridazine-1-carboxylate]
